This note sets out measurements from patent US9708336B2, “Metallo-beta-lactamase inhibitors” (priority 2014, dated 2017).

Each structure is given as a SMILES string. pIC50: −log10 of the molar value. Read-outs that look alike come from different tables or passages of the source.

One test deals with NDM-1 (Klebsiella pneumoniae, UniProt C7C422). As to the kind of experiment: biochemical. The class given is biochemical. The settings on record: NDM-1 enzyme, CCF2-FA fluorescence assay; read-out: NDM-1 IC50.
Sequence of NDM-1 (C7C422 whole entry, looked up, species assumed): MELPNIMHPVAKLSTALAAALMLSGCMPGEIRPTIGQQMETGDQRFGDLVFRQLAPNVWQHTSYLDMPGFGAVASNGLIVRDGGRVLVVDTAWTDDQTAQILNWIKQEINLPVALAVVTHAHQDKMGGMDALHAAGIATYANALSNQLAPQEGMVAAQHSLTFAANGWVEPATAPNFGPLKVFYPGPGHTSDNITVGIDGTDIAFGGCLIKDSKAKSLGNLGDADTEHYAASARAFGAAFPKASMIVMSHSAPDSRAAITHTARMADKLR
The target of a further test is IMP-1 (Serratia marcescens, UniProt P52699). Description: biochemical. Type of test: biochemical. The following applies: IMP-1 enzyme, CCF2-FA fluorescence assay; read-out: IMP-1 IC50.
Sequence of IMP-1 (P52699 whole entry, looked up): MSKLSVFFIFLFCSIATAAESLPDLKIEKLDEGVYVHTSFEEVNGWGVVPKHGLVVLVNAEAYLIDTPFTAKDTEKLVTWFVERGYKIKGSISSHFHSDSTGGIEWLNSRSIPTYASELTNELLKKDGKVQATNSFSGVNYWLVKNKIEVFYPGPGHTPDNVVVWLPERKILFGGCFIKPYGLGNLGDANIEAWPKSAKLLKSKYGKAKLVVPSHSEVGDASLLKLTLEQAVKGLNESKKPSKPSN
A further test addresses VIM-1 (Pseudomonas aeruginosa (strain ATCC 15692 / DSM 22644 / CIP 104116 / JCM 14847 / LMG 12228 / 1C / PRS 101 / PAO1), UniProt A0A0F7KYQ8). Description: Enzyme activity: determination of IC50, fluorescence assay with CCF2-FA substrate (VIM-1). The following applies: CCF2-FA fluorescence assay. The class given is biochemical.
In test [1] the test system is Escherichia coli expressing NDM-1 (CLB30016). As to the kind of experiment: Antibiotic potentiation activity: synergistic concentration (MITC95) with imipenem, OD600 growth. The class given is cell-based. The settings on record: Escherichia coli expressing NDM-1 (CLB30016), 95% growth inhibition. A digest of the protocol:
(§1)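 Clinical MBL-producing strains (E. coli NDM-1, S. marcescens IMP-1, K. pneumoniae VIM-1) from overnight plates were diluted 1:100 into 1.1×CAMHB. Compound was tested with imipenem at 4 μg/ml (optionally 1 μg/ml) or without it. After 22–24 h at 35 °C, growth was read as OD600.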

For test [2], the system named is Klebsiella pneumoniae expressing VIM-1 (IHMA599644). Described as above. The class given is cell-based. The following applies: Klebsiella pneumoniae expressing VIM-1 (IHMA599644), 95% growth inhibition. A digest of the protocol: as §1
In test [3] the test system is Serratia marcescens expressing IMP-1 (CL5741). The test is described as above. The class given is cell-based. The settings on record: Serratia marcescens expressing IMP-1 (CL5741), 95% growth inhibition. A digest of the protocol: as §1
Where [4] appears, read: VIM-1 enzyme, read-out: VIM-1 IC50.

For the compound `NS(=O)(=O)c1cccc(-c2ccc(CNC3CCNC3=O)cc2)c1-c1nnn[nH]1` (stereo not drawn) [Example 388, 4′-{[(2-oxopyrrolidin-3-yl)amino]methyl}-2-(1H-tetrazol-5-yl)biphenyl-3-sulfonamide], the pIC50 at NDM-1 is 8.37; on IMP-1, 7.31; against VIM-1 (VIM-1 IC50, VIM-1 enzyme), 6.56. The “Escherichia coli MITC95” value in test [1] came to 1.563 µM. Also, the “Klebsiella pneumoniae MITC95” value in test [2] came to 200 µM. Also, the “Serratia marcescens MITC95” value in test [3] amounted to 1.563 µM.

For the compound `NS(=O)(=O)c1cccc(-c2ccc(CNCCc3cc[nH]n3)cc2)c1-c1nnn[nH]1` [Example 389, 4′-({[2-(1H-pyrazol-3-yl)ethyl]amino}methyl)-2-(1H-tetrazol-5-yl)biphenyl-3-sulfonamide], the values for the pIC50 on NDM-1, on IMP-1 and at VIM-1 (setting [4]) were 8.48, 7.19 and 6.84, respectively. The “Escherichia coli MITC95” value in test [1] was 1.563 µM. In test [2], the “Klebsiella pneumoniae MITC95” value stood at 75 µM. The “Serratia marcescens MITC95” value in test [3] is 2.344 µM.

For `NS(=O)(=O)c1cccc(-c2ccc(CNCCO)cc2)c1-c1nnn[nH]1` [Example 390, 4′-{[(2-hydroxyethyl)amino]methyl}-2-(1H-tetrazol-5-yl)biphenyl-3-sulfonamide], the figures for the pIC50 on NDM-1, at IMP-1 and at VIM-1 (setting [4]) were 7.92, 6.32 and 6.65, respectively. The “Escherichia coli MITC95” value in test [1] worked out at 0.7813 µM. In test [2], the “Klebsiella pneumoniae MITC95” value is 62.5 µM. Besides, the “Serratia marcescens MITC95” value in test [3] amounted to 6.25 µM.

For `NS(=O)(=O)c1cccc(-c2ccc(CN3CC[C@H](CO)C3)cc2)c1-c1nnn[nH]1` [Example 392, 4′-{[(3S)-3-(hydroxymethyl)pyrrolidin-l-yl]methyl}-2-(1H-tetrazol-5-yl)biphenyl-3-sulfonamide], the pIC50 is 8.10 on NDM-1; 6.40 on IMP-1; 6.34 on VIM-1 (VIM-1 IC50, VIM-1 enzyme). For the same compound, the “Escherichia coli MITC95” value in test [1] is 2.344 µM. Moreover, the “Klebsiella pneumoniae MITC95” value in test [2] came to 75 µM. In addition, the “Serratia marcescens MITC95” value in test [3] was determined as 3.125 µM.

In the case of `NS(=O)(=O)c1cccc(-c2ccc(CN3CCC(CCO)C3)cc2)c1-c1nnn[nH]1` (stereo not drawn) [Example 393, 4′-{[3-(2-hydroxyethyl)pyrrolidin-1-yl]methyl}-2-(1H-tetrazol-5-yl)biphenyl-3-sulfonamide], the pIC50 was 7.97 at NDM-1, 6.47 on IMP-1 and 6.29 on VIM-1 (setting [4]). Moreover, in test [1], the “Escherichia coli MITC95” value is 1.563 µM. Moreover, the “Klebsiella pneumoniae MITC95” value in test [2] came out at 200 µM. In test [3], the “Serratia marcescens MITC95” value worked out at 4.688 µM.

With `NS(=O)(=O)c1cccc(-c2ccc(CN3CCC(O)CC3)cc2)c1-c1nnn[nH]1` [Example 394, 4′-[(4-hydroxypiperidin-1-yl)methyl]-2-(1H-tetrazol-5-yl)biphenyl-3-sulfonamide], the results for the pIC50 on NDM-1, on IMP-1 and on VIM-1 (setting [4]) were 7.95, 6.71 and 6.18, respectively. Moreover, the “Escherichia coli MITC95” value in test [1] is 2.344 µM. In test [2], the “Klebsiella pneumoniae MITC95” value is more than 200 µM. Also, in test [3], the “Serratia marcescens MITC95” value was 3.125 µM.

In the case of `NS(=O)(=O)c1cccc(-c2ccc(CN3CCCC3CO)cc2)c1-c1nnn[nH]1` (stereo not drawn) [Example 395, 4′-{[2-(hydroxymethyl)pyrrolidin-1-yl]methyl}-2-(1H-tetrazol-5-yl)biphenyl-3-sulfonamide], the pIC50 at NDM-1 is 7.84; at IMP-1, 6.65; on VIM-1 (setting [4]) it was 6.46. The “Escherichia coli MITC95” value in test [1] was 1.563 µM. Besides, the “Klebsiella pneumoniae MITC95” value in test [2] came to 100 µM. The “Serratia marcescens MITC95” value in test [3] was 3.125 µM.

In the case of `NS(=O)(=O)c1cccc(-c2ccc(CN3CC(O)C(F)C3)cc2)c1-c1nnn[nH]1` (stereo not drawn) [Example 396, 4′-[(3-fluoro-4-hydroxypyrrolidin-1-yl)methyl]-2-(1H-tetrazol-5-yl)biphenyl-3-sulfonamide], the results for the negative-log IC50 (pIC50) on NDM-1, on IMP-1 and at VIM-1 (setting [4]) were 8.49, 7.65 and 6.74, respectively. Also, the “Escherichia coli MITC95” value in test [1] is 1.172 µM. In test [2], the “Klebsiella pneumoniae MITC95” value was determined as 100 µM. Moreover, the “Serratia marcescens MITC95” value in test [3] was found to be 1.172 µM.

As to `Nc1nccc2ccc(-c3cccc(S(N)(=O)=O)c3-c3nnn[nH]3)cc12` [Example 400, 3-(1-aminoisoquinolin-7-yl)-2-(1H-tetrazol-5-yl)benzenesulfonamide], the pIC50 at NDM-1 is 8.79; at IMP-1, 6.78; at VIM-1 (VIM-1 IC50, VIM-1 enzyme), 7.73. In addition, the “Escherichia coli MITC95” value in test [1] stood at 0.25 µM. For the same compound, the “Klebsiella pneumoniae MITC95” value in test [2] was found to be 6.25 µM. Also, in test [3], the “Serratia marcescens MITC95” value worked out at 12.5 µM.

In the case of `Nc1ccnc2ccc(-c3cccc(S(N)(=O)=O)c3-c3nnn[nH]3)cc12` [Example 401, 3-(4-amino-6-quinolyl)-2-(1H-tetrazol-5-yl)benzenesulfonamide], the pIC50 on NDM-1 is 8.14; at IMP-1, 6.19; on VIM-1 (VIM-1 IC50, VIM-1 enzyme) it was 8.12. Besides, the “Escherichia coli MITC95” value in test [1] amounted to 0.09375 µM. Moreover, the “Klebsiella pneumoniae MITC95” value in test [2] was 0.8906 µM. In test [3], the “Serratia marcescens MITC95” value is 6.25 µM.

Consider `Nc1cnc(-c2cccc(S(N)(=O)=O)c2-c2nnn[nH]2)cn1` [Example 402, 3-(5-aminopyrazin-2-yl)-2-(1H-tetrazol-5-yl)benzenesulfonamide], for which the values for the pIC50 at NDM-1, at IMP-1 and on VIM-1 (setting [4]) were 8.09, 6.41 and 6.46, respectively. Further, in test [1], the “Escherichia coli MITC95” value was determined as 0.3906 µM. In test [2], the “Klebsiella pneumoniae MITC95” value is 25 µM. Moreover, the “Serratia marcescens MITC95” value in test [3] was 6.25 µM.

As to `Nc1ccc2cc(-c3cccc(S(N)(=O)=O)c3-c3nnn[nH]3)ccc2n1` [Example 403, 3-(2-amino-6-quinolyl)-2-(1H-tetrazol-5-yl)benzenesulfonamide], the results for the negative-log IC50 (pIC50) at NDM-1, at IMP-1 and on VIM-1 (setting [4]) were 8.63, 6.74 and 7.81, respectively. Besides, the “Escherichia coli MITC95” value in test [1] turned out to be 0.125 µM. Further, the “Klebsiella pneumoniae MITC95” value in test [2] was determined as 6.25 µM. For the same compound, in test [3], the “Serratia marcescens MITC95” value amounted to 4.688 µM.

Take `NS(=O)(=O)c1cccc(-c2cnc3ccccn23)c1-c1nnn[nH]1` [Example 404, 3-imidazo[1,2-a]pyridin-3-yl-2-(1H-tetrazol-5-yl)benzenesulfonamide]: the pIC50 on NDM-1 is 9.09; on IMP-1, 7.15; on VIM-1 (setting [4]), 8.27. Moreover, the “Escherichia coli MITC95” value in test [1] is 0.0625 µM. The “Klebsiella pneumoniae MITC95” value in test [2] is 2.563 µM. Further, the “Serratia marcescens MITC95” value in test [3] amounted to 1.708 µM.

As for `NS(=O)(=O)c1cccc(-c2ccc3nccnc3c2)c1-c1nnn[nH]1` [Example 405, 3-quinoxalin-6-yl-2-(1H-tetrazol-5-yl)benzenesulfonamide], the figures for the pIC50 on NDM-1, on IMP-1 and on VIM-1 (setting [4]) were 8.37, 7.17 and 7.77, respectively. In addition, in test [1], the “Escherichia coli MITC95” value was found to be 1.563 µM. Moreover, the “Klebsiella pneumoniae MITC95” value in test [2] turned out to be 62.5 µM. For the same compound, in test [3], the “Serratia marcescens MITC95” value was found to be 1.563 µM.

As to `NS(=O)(=O)c1cccc(-c2ccnc3ncccc23)c1-c1nnn[nH]1` [Example 406, 3-(1,8-naphthyridin-4-yl)-2-(1H-tetrazol-5-yl)benzenesulfonamide], the values for the pIC50 on NDM-1, at IMP-1 and at VIM-1 (setting [4]) were 8.78, 6.60 and 8.76, respectively. For the same compound, in test [1], the “Escherichia coli MITC95” value worked out at 1.172 µM. For the same compound, the “Klebsiella pneumoniae MITC95” value in test [2] came to 3.125 µM. In addition, the “Serratia marcescens MITC95” value in test [3] is 6.25 µM.

For `NS(=O)(=O)c1cccc(-c2ccc3cnccc3c2)c1-c1nnn[nH]1` [Example 408, 3-(6-isoquinolyl)-2-(1H-tetrazol-5-yl)benzenesulfonamide], the values for the pIC50 on NDM-1, at IMP-1 and on VIM-1 (setting [4]) were 8.86, 7.07 and 7.83, respectively. Besides, the “Escherichia coli MITC95” value in test [1] turned out to be 0.3906 µM. In addition, the “Klebsiella pneumoniae MITC95” value in test [2] was 75 µM. Also, the “Serratia marcescens MITC95” value in test [3] was determined as 4.688 µM.

Turning to `NS(=O)(=O)c1cccc(-c2csc(-c3ccncc3)n2)c1-c1nnn[nH]1` [Example 409, 3-[2-(4-pyridyl)thiazol-4-yl]-2-(1H-tetrazol-5-yl)benzenesulfonamide], the pIC50 is 7.57 at NDM-1, 6.35 on IMP-1 and 6.63 on VIM-1 (setting [4]). For the same compound, in test [1], the “Escherichia coli MITC95” value came to 1.563 µM. Moreover, the “Klebsiella pneumoniae MITC95” value in test [2] is more than 200 µM. Further, the “Serratia marcescens MITC95” value in test [3] amounted to 12.5 µM.

Consider `NS(=O)(=O)c1cccc(-c2cc3ccncc3s2)c1-c1nnn[nH]1` [Example 410, 2-(1H-tetrazol-5-yl)-3-thieno[2,3-c]pyridin-2-yl-benzenesulfonamide], for which the pIC50 is 8.39 on NDM-1, 6.97 on IMP-1 and 7.72 at VIM-1 (setting [4]). Moreover, the “Escherichia coli MITC95” value in test [1] came to 0.5859 µM. Further, the “Klebsiella pneumoniae MITC95” value in test [2] came out at 18.75 µM. Further, the “Serratia marcescens MITC95” value in test [3] turned out to be 3.125 µM.

The term pIC50 denotes −log10 of the IC50, conventionally taken in molar units.
